In test [1] the test system is erythropoietin (EPO) gene expression. The test can be described thus: Real-time reverse transcription quantitative PCR (qRT-PCR) assay of EPO gene expression. In kind it is cell-based. The following applies: HepG2 cells, 24 hours, relative to vehicle. The method, then: Experimental method: HepG2 hepatocellular carcinoma cells are seeded into a 12-well plate. After 24 hours, 10 µM roxadustat, 1 µM tafamidis, 5 µM tafamidis, 10 µM tafamidis, and 20 µM tafamidis, a combination of 10 µM roxadustat and 1 µM tafamidis, a combination of 10 µM roxadustat and 5 µM tafamidis, a combination of 10 µM roxadustat and 10 µM tafamidis, and a combination of 10 µM roxadustat and 20 µM tafamidis, are added separately, and the cells are co-incubated with the compounds for 24 hours. No treatment is applied to the vehicle group. RNA is extracted using a TRIZOL reagent. cDNA transcription is performed using an All-in-one™ First-Strand cDNA Synthesis Kit (for specific operating procedures, see the manufacturer's instructions). A SYBR reagent is used for fluorescence signal detection, and GAPDH is used as an internal control. The qRT-PCR primers are as follows: • GAPDH_fwd, […]; • GAPDH_rev, TGGTGAAGACGCCAGTGGA; • EPO_fwd, […]; • EPO_rev, […].
The test results are shown in FIG. 2: relative to the vehicle (control group), monotherapy with 10 µM roxadustat upregulates erythropoietin (EPO) gene expression by 1.5-fold, while monotherapy with 20 µM tafamidis upregulates EPO gene expression by 1-fold. […] Such activation may have potential therapeutic value for treating diseases such as ischemic diseases or anemia. Statistical analysis is performed using SPSS software. […]

In another test the test system is rats with renal anemia. The test can be described thus: Cisplatin-induced renal anemia rat model. Conditions: 5 mg/kg roxadustat. In kind it is in vivo, Male Sprague-Dawley (SD) rats. The protocol: Male Sprague-Dawley (SD) rats are allowed a one-week acclimation period, after which cisplatin (6 mg/kg) is administered through tail vein injection. A second injection is given one week later. Two weeks after the first administration, successful establishment of a renal disease model is confirmed by measuring serum creatinine and urea levels. The successfully modeled rats are randomly divided into three groups: cisplatin group (n = 6), 5 mg/kg roxadustat group (n = 6), and 5 mg/kg roxadustat + 10 mg/kg tafamidis group (n = 6), with continuous administration for 4 weeks. A solvent is administered to the normal control group (n = 7) and the cisplatin group based on the same drug administration regimen. After drug administration, blood analysis is performed once per week using a Mindray automated hematology analyzer (BC-5150). After sample collection, the rats are euthanized. Statistical significance is determined by one-way analysis of variance (ANOVA), and then a Dunnett's test is performed for comparison with the cisplatin group (*P < 0.05, **P < 0.01, ***P < 0.001).

The target of a further test is T1, HIF-2α (Homo sapiens, UniProt Q99814).
T1 construct: 786-O is a renal carcinoma cell line that predominantly expresses HIF-2α; endogenous in cells; host or cells: 786-O cells stably transfected with HRE-driven luciferase reporter
The test can be described thus: Luciferase reporter gene assay (HRE-driven luciferase in stably transfected 786-O cells). The format is cell-based. Conditions: 786-O HRE-Luc cells, 24 hours, relative to blank control. From the text:
Experimental principles: 786-O is a renal carcinoma cell line that predominantly expresses HIF-2α and lacks functional HIF-1α. This characteristic makes 786-O cells an ideal model for studying HIF-2α transcriptional activity and related signaling pathways. In the luciferase reporter gene assay, a 786-O monoclonal cell line that stably expresses hypoxia response element (HRE)-driven luciferase (Luc) activity is obtained through puromycin selection. The HIF-2α agonist promotes dimerization of HIF-2α and HIF-β, and activates an HRE promoter. By measuring fluorescence intensity, luciferase activity can be determined, thereby assessing the ability of the HIF-2α agonist to promote transcription.
Experimental method: A total of 6000 stably transfected 786-O cells stably containing HRE and Luc sequences are seeded in each well of a 96-well plate, and 100 µL of RPMI-1640 culture medium containing 10% fetal bovine serum is added to each well. After 24 hours, a compound at a corresponding concentration is added to each well. A blank group is set as a control. Only a DMSO solvent is added in the well of the blank group. For initial compound screening, both tafamidis and tafamidis meglumine are tested at two concentrations: 2 µM and 20 µM. For concentration-gradient determination, each concentration is tested in triplicate. After co-incubation for 24 hours, the culture medium is discarded, and 20 µL of firefly luciferase reporter gene cell lysis buffer (RG126M, Beyotime) is added to each well. The 96-well plate is shaken on a microplate shaker for 10 minutes. After shaking, 10 µL of lysate is transferred into a white opaque plate, and then 10 µL of Steady-Lumi™ firefly luciferase assay reagent (RG058S, Beyotime) is added to each well. Finally, luminescence is measured using a microplate reader (Agilent Synergy Neo2). E20 represents the effect of the compound at a 20 µM concentration, and is calculated as: E20 = fluorescence value of the 20 µM well ÷ fluorescence value of the blank control × 100%. E2 represents the effect of the compound at a 2 µM concentration, and is calculated as: E2 = fluorescence value of the 2 µM well ÷ fluorescence value of the blank control × 100%. EC50 is the compound concentration at which the agonistic efficacy is increased by 50% relative to the blank control. […] The maximum activation percentage (Emax) of an agonist refers to a ratio, expressed as a percentage, of the fluorescence value corresponding to the maximal effect (observed maximal response) induced when the agonist concentration reaches receptor-binding saturation in a particular receptor system, to the fluorescence value of the receptor system in the absence of agonist. […]
On the technique in general: Reporter assays use an easily measured gene product as a stand-in for the process of interest.

Structures are written as SMILES.

T1 sequence (Q99814 whole entry): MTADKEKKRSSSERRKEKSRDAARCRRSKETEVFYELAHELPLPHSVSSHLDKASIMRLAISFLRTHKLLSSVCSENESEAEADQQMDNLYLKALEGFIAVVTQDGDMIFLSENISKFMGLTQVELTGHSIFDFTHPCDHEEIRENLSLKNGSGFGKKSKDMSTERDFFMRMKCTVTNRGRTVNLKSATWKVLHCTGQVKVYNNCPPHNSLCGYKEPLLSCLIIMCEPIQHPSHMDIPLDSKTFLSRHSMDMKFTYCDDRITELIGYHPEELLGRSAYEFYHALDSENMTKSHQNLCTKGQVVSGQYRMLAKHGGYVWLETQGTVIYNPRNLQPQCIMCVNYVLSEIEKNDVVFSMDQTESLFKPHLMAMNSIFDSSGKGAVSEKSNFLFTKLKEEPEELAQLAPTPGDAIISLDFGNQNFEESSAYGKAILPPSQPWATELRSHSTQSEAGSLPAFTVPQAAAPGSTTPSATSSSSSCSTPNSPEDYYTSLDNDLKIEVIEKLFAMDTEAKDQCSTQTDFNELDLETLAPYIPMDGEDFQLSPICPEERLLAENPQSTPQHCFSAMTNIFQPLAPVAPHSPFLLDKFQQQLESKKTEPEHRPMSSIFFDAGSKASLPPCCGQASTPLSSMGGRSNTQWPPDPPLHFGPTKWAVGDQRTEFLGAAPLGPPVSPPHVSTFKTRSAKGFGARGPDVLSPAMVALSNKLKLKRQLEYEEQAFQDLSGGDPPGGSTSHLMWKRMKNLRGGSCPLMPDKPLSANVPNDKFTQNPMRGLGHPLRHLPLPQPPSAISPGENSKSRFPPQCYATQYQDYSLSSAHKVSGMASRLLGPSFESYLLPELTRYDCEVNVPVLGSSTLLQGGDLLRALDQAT
T1 sequence (P27540 whole entry partner): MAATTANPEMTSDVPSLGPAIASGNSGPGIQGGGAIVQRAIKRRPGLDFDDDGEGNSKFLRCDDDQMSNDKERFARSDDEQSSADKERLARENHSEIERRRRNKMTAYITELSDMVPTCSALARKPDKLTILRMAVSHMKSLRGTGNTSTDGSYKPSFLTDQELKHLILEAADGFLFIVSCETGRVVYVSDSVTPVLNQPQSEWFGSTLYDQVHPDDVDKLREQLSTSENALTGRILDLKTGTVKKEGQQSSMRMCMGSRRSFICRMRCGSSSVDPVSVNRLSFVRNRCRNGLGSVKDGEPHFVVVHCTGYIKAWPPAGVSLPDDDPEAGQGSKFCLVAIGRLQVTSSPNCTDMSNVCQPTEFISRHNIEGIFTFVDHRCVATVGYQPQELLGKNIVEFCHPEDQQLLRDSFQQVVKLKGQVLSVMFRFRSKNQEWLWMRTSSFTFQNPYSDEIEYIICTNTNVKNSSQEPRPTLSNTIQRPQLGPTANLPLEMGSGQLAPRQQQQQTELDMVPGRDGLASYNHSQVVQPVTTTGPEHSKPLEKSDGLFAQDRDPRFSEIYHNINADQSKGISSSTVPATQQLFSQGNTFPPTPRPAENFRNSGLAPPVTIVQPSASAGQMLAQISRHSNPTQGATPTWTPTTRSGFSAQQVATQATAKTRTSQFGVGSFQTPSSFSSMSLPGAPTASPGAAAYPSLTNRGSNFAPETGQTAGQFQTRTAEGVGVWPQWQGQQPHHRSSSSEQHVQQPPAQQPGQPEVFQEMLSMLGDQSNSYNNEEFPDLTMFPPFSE

As to `Cc1nc(C(=O)NCC(=O)O)c(O)c2ccc(Oc3ccccc3)cc12` [roxadustat], the “upregulates erythropoietin (EPO) gene expression” value in test [1] (10 µM roxadustat monotherapy) is recorded as 1.5 fold. Also, in the test with rats with renal anemia (Week 4, n = 6), the Hematocrit is recorded as 52.2 ± 1.3%, the Hemoglobin concentration is reported as 143.3 ± 4.1 g/L and the “Red blood cell count” value was 7.03 ± 0.40 ×10^12 cells/L. Besides, in the test on rats with renal anemia (group n = 6), the “kidneys appear red (gross observation of kidney tissues)” value worked out at 3 rats.

As to `O=C(O)c1ccc2nc(-c3cc(Cl)cc(Cl)c3)oc2c1` [tafamidis meglumine], at HIF-2α, the “agonistic efficacy at a 2 µM concentration (E2)” value is on record as 122% and the “agonistic efficacy at a 20 µM concentration (E20)” value turned out to be 223%.

Take `O=C(O)c1ccc2nc(-c3cc(Cl)cc(Cl)c3)oc2c1` [tafamidis, 2-(3,5-dichlorophenyl)-1,3-benzoxazole-6-carboxylic acid]: on HIF-2α, the “agonistic efficacy at a 2 µM concentration (E2)” value came out at 142% and the “agonistic efficacy at a 20 µM concentration (E20)” value amounted to 207%. Moreover, the “upregulates EPO gene expression” value in test [1] (20 µM tafamidis monotherapy) was found to be 1 fold.
